Data reported in patent US20230201174A1, “COMBINATION OF FINERENONE AND A SGLT2 INHIBITOR FOR THE TREATMENT AND/OR PREVENTION OF CARDIOVASCULAR AND/OR RENAL DISEASES” (BAYER AKTIENGESELLSCHAFT, priority 2020, published 2023).

Experiments:
[1] = test system: Wistar rats with activated renin-angiotensin-aldosterone system; assay: In vivo assay for detecting natriuretic activity in conscious rats with activated RAAS; design: species or system rat; details: for Urinary Glucose concentration / Urinary K+ concentration / Urinary Na+ concentration / Urinary Volume/ body weight: Table 4, 24 h urine, mean ± SEM
Method: Wistar rats (ca. 250-500 g body weight) were kept with free access to feed (Altromin) and drinking water. […] This sodium-reduced feed causes an activation of the RAAS in the animals during the 3 days run-in phase and therefore mimics a neuroendocrine activation which is characteristic for cardiorenal diseases. […] At the start of the test, the substance to be tested was administered by means of gavage in a volume of 2-3 ml/kg of body weight of a suitable solvent PEG400). Control animals received only solvent (‘S’ or solvent in table 2 below). Controls and substance tests were carried out in parallel on the same day. Control groups and substance-dose groups each consisted of 6 to 10 animals. During the test, the urine excreted by the animals was continuously collected in a receiver on the base of the cage.
In this comparison, eight different administrations were performed (cf. groups A to H):
Group A received the solvent (PEG400) only. This group serves as control group.
Groups B, C and D received three increasing dosages of empagliflozin (SGLT2 inhibitor) only. It serves to detect the effects of the monotherapy with SGLT2 inhibitor.
Group E received a finerenone only. It serves to detect the effect of the monotherapy with finerenone.
Groups F, G and H received finerenone and the three doses of SGLT2 inhibitor in combination, respectively. It serves to detect the effect of the combined therapy with finerenone and empagliflozin (SGLT2 inhibitor) (combination according to the invention).
After the treatment, the urinary volume, urinary glucose, urinary sodium and potassium concentrations were measured.

[2] = tended to increase on day 1 after administration; cited from earlier work
[3] = Table 4 study, monotherapy 10 mg/kg
[4] = Table 4 study, monotherapy: canagliflozin 1 and 3 mg/kg, finerenone 1 mg/kg

## Cc1ccc([C@@H]2O[C@H](CO)[C@@H](O)[C@H](O)[C@H]2O)cc1Cc1ccc(-c2ccc(F)cc2)s1 [canagliflozin, (2S,3R,4R,5S,6R)-2-(3-{[5-(4-fluorophenyl)thiophen-2-yl]methyl}-4-methylphenyl)-6-(hydroxymethyl)oxane-3,4,5-triol]
[1]; monotherapy 1 mg/kg oral
  Urinary Glucose concentration: 2.76 ± 0.36 mmol
  Urinary K+ concentration: 1.86 ± 0.11 mmol
  Urinary Na+ concentration: 0.15 ± 0.03 mmol
  Urinary Volume/ body weight: 0.03108 ± 0.00317 L/kg
[1]; monotherapy 3 mg/kg oral
  Urinary Glucose concentration: 6.94 ± 0.44 mmol
  Urinary K+ concentration: 2.40 ± 0.17 mmol
  Urinary Na+ concentration: 0.21 ± 0.05 mmol
  Urinary Volume/ body weight: 0.04049 ± 0.00243 L/kg
[1]; monotherapy 10 mg/kg oral
  Urinary Glucose concentration: 9.99 ± 0.46 mmol
  Urinary K+ concentration: 2.36 ± 0.15 mmol
  Urinary Na+ concentration: 0.41 ± 0.08 mmol
  Urinary Volume/ body weight: 0.05583 ± 0.00352 L/kg
[1]; [3]
  influence on urinary sodium, in words: increase
  influence on urinary volume, in words: increase
[1]; [4]
  influence on urinary potassium, in words: no influence
  influence on urinary sodium, in words: no influence
  influence on urinary volume, in words: no influence
[1]; Table 4 study, monotherapy: canagliflozin all doses (1, 3, 10 mg/kg), finerenone 1 mg/kg
  influence on urinary glucose, in words: strong increase
[2]
  urinary Na+ excretion, in words: returned to baseline from day 2 to 5
